According to US20020197714A1, “Composition and method for increasing cell density in cell cultures infected with lentivirus” (Wyeth, priority 2001, published 2002):

Test system: Fet-J cells chronically infected with feline immunodeficiency virus (FIV)
Assay: Cell density of FIV-infected Fet-J suspension cultures supplemented with antibiotics (trypan blue exclusion on hemacytometer)
Assay type: cell-based
Settings: for Cell density Day 1 / Cell density Day 2 / Cell density Day 3 / Cell density Day 4 / Cell density Day 5: antibiotic 30 micrograms/mL in serum free media, planted at 3×10^5 viable cells/mL; for Effect on growth / cell density compared with cultures without antibiotic (in words): antibiotic 30 micrograms/mL, Days 1-5
Protocol: In this example, Fet-J cells chronically infected with feline immunodeficiency virus (FIV) were grown in serum free media such as modified DMEM:F12 Media or AIM V media, supplemented with 2.5 mg/mL of ALBUMAX®, which is derived from BSA. Cells were grown in suspension in Erlenmeyer flasks on a rotary shaker at 150 rpm at 37° C. Cells were planted at a cell density of 3×10^5 viable cells/mL. Cell densities were determined by trypan blue exclusion on hemacytometer. Gp 120 expression determination was accomplished by enzyme linked immunosorbent assay (ELISA) using anti-FIV Gp 120 monoclonal antibodies. The antibiotics assessed for FIV supplementation included gentamycin, neomycin and polymixin B. Media were spiked with respective antibiotics at a concentration of 30 micrograms/mL. Cell densities were determined on a 24 hour basis by the method described above.

Row | Substance | Cell density Day 1 | Cell density Day 2 | Cell density Day 3 | Cell density Day 4 | Cell density Day 5 | Effect on growth / cell density compared with cultures without antibiotic (in words)
1 | gentamycin | 2.4 × 10^5 cell/mL | 3.2 × 10^5 cell/mL | 6.5 × 10^5 cell/mL | 1.1 × 10^6 cell/mL | 1.1 × 10^6 cell/mL | no significant effect
2 | neomycin | 4.7 × 10^5 cell/mL | 7.8 × 10^5 cell/mL | 1.2 × 10^6 cell/mL | 1.3 × 10^6 cell/mL | 1.8 × 10^6 cell/mL | best overall growth and increase in cell densities
3 | polymixin B | 2.9 × 10^5 cell/mL | 4.6 × 10^5 cell/mL | 5.8 × 10^5 cell/mL | 6.6 × 10^6 cell/mL | 6.6 × 10^5 cell/mL | suppressed cell density
